Experimental data taken from ChEMBL document CHEMBL1135867, “Synthesis, photobiological activity and photoreactivity of methyl-thieno-8-azacoumarins, novel bioisosters of psoralen” (Bioorg Med Chem Lett, 2002).
pIC50: −log10 of the molar value. Calls of active or inactive are those of the source. The calls are words filed in the database; no cut-off is given here.

Assays:
HeLa = experiment: Compound was evaluated for its antiproliferative activity after UVA irradiation on human tumor HeLa cell line; type: functional, cell-based; details: light or radiation study
Cavia porcellus [1] = organism: Cavia porcellus; experiment: Skin phototoxicity was evaluated after UVA irradiation at a dose of 0.2 (umol cm e-2) and formation of erythema was reported; Absent; type: functional, organism-based
HL-60 = experiment: Compound was evaluated for its antiproliferative activity after UVA irradiation on human tumor HL-60 cell line; type: functional, cell-based; details: HL-60, light or radiation study
Cavia porcellus [2] = experiment: Skin phototoxicity was evaluated after UVA irradiation at a dose of 0.05 (umol cm e-2) and formation of erythema was reported; Strong (with edema); type: functional, organism-based

| Structure (SMILES) | pIC50 (HeLa) | Formation of erythema (Cavia porcellus [1]) | pIC50 (HL-60) | Formation of erythema (Cavia porcellus [2]) |
| --- | --- | --- | --- | --- |
| Cc1cc(=O)oc2nc3scc(C)c3cc12 | 5.05 | inactive | 5.66 |  |
| Cc1sc2nc3oc(=O)cc(C)c3cc2c1C | < 4.70 | inactive | 5.14 |  |
| COc1c2occc2cc2ccc(=O)oc12 |  |  |  | Active |
